Measured values: patent US20220047596A1, “COMBINATION OF PARP INHIBITOR AND BRD4 INHIBITOR FOR THE TREATMENT OF CANCER” (Board of Regents, The University of Texas System, priority 2018, published 2022)

Assays:
U2OS DR-GFP cells = test: U2OS DR-GFP HR reporter assay; assay type: cell-based, Human; details: 100 nM for 24 hr, then I-Sce1 for 48 hr
Description: HR Repair Analysis: U2OS DR-GFP cells contain a single copy of the HR repair reporter substrate DR-GFP, which contains two nonfunctional GFP open reading frames, including one GFP-coding sequence that is interrupted by a recognition site for the I-SceI endonuclease. Expression of I-SceI leads to formation of a DSB in the I-SceI GFP allele, which can be repaired by HR using the nearby GFP sequence lacking the N- and C-termini, thereby producing functional GFP that can be detected by flow cytometry. […] Then, cells were transfected with a plasmid expressing I-SceI (pCBASce) for 48 hr. Cells transfected with an empty vector were used as a negative control. GFP-expressing plasmid (pEGFP-C1) was used for transfection efficiency control. Flow cytometry analysis was performed to detect GFP^+ cells using FACScalibur with CellQuest software (Becton Dickinson). The repair efficiency was scored as the percentage of GFP^+ cells.

HOC1 cells [1] = test: RPA and RAD51 foci immunofluorescence; assay type: cell-based, Human; details: for RAD51 nuclear foci: after PARPi or IR, compared with vehicle
Procedure: Immunofluorescence Staining and Microscopy: Briefly, cells were washed with PBS and fixed with 4% paraformaldehyde for 5 min, followed by permeabilization with 0.5% NP-40 and 1% Triton X-100 for 10 min Cells were then blocked with 5% FBS for 30 min and incubated with primary antibody (anti-RAD51, PC130, 1:100; anti-g-H2AX (Ser139), clone JBW301, 1:1000 from Millipore Corp; anti-RPA32, ab2175, 1:500 from Abcam) for 2 hr, followed by secondary antibody incubation for 1 hr at room temperature. Slides were sealed in mounting medium containing DAPI (Vector Laboratories, H1200) for further image acquisition. TE-2000 imaging acquisition system (Nikon) equipped with a 60× objective lens was used to capture images. Stained was quantified by ImageJ.

HOC1 cells [2] = test: Alkaline comet assay; assay type: cell-based, Human; details: 200 nM each, 48 hr
Procedure: Alkaline Single-Cell Agarose Gel Electrophoresis (Comet) Assays: Alkaline comet assays were performed with Comet Assay Kit (Trevigen) using manufacturer's instructions. Briefly, cell suspensions were embedded in LM (low melting) Agarose and deposited on comet slides. Slides were incubated for 1 hr at 4° C. in lysis solution, followed by immersing slides in freshly prepared alkaline unwinding solution (pH >13) for 20 min at room temperature in the dark. Electrophoresis was carried out for 30 min at 21 V in electrophoresis solution (pH >13). Slides were then stained with SYBR™ Gold (Thermo Fisher Scientific). Tail DNA content was analyzed with Comet score 1.5 software. DNA strand breakage was expressed as “comet tail moment”. The tail moment was measured for a minimum of 50 cells per sample, and average damage from 3 independent experiments was calculated.

HOC1 cells [3] = test: Detection of ssDNA by BrdU immunofluorescence under non-denaturing conditions; assay type: cell-based, Human; details: 4 hr after 10 Gy irradiation
Procedure: Detection of ssDNA by Immunofluorescence: Cells were grown in […] BrdU for two doubling times before irradiation. […] Cells were placed on ice 10 min before irradiation and kept on ice during the irradiation with 10 Gy. […] BrdU was stained (anti-BrdU, ab8152, 1:100 from Abcam) in non-denaturing conditions which enables detection of BrdU incorporated in ssDNA. TE-2000 imaging acquisition system (Nikon) equipped with a 60× objective lens was used to capture images. Stained was quantified by ImageJ.

HRD gene signature = HRD gene signature score applied to public transcriptional profiling data; details: human or murine tumors; GEO datasets
Description: Microarray Analysis and IPA Analysis: Gene expression datasets of GSE29799 (Zuber et al., 2011), GSE66048 (Ambrosini et al., 2015), GSE44929 (Love′ n et al., 2013), GSE85840 (Rhyasen et al., 2016), GSE31365 (Delmore et al., 2011), and GSE43392 (Puissant et al., 2013) were downloaded from Gene Expression Omnibus (GEO) (https://www.ncbi.nlm.nih.gov/geo). Raw data were subjected to intensity normalization using affy package in R (Bioconductor), followed by log transformation and quantile normalization. Normalized data were checked for quality and determined to be free of outliers by analysis using box plots, density plots and MA plots. Differential expression genes after BRD4 inhibition were calculated using a linear model provided by the limma package in R based on the cutoffs: 2 for absolute fold change, 0.05 for p value.
HRD Score Acquisition from HRD Signature HRD signature consisting of 230 differentially expressed genes was obtained as previously described (Peng et al., 2014). Normalized gene expression data (GSE29799, GSE66048, GSE44929, GSE85840, GSE31365, and GSE43392) after BRD4 inhibition were subjected to unsupervised clustering with these 230 genes. HRD scores were determined by calculating the Pearson's correlations between median centered gene expression levels for HRD signature and gene expression levels for a given sample (Peng et al., 2014).

CtIP = test: Western blot of CtIP and DNA damage response proteins; assay type: cell-based, Human
Procedure: Protein lysates were analyzed by RPPA in MDACC CCSG (The Cancer Center Support Grant) supported RPPA Core. Antibodies and approaches are described at the RPPA website (https://www.mdanderson.org/research/research-resources/core-facilities/functional-proteomics-rppa-core.html). For visualization, 2D and 3D, concentrations and time were averaged for each cell line. Heat map represents “rank-ordered” changes induced by BRD4i treatment, calculated by summing median-centered protein amount normalized to DMSO. Western Blot: To prepare whole cell lysates, cells were lysed with RIPA buffer (Thermo Fisher Scientific) supplemented with Halt™ Protease and Phosphatase Inhibitor (EDTA-free) Cocktail (Thermo Fisher Scientific). After thorough mixing and incubation at 4° C. for 10 min, lysates were centrifuged at 15,000 g at 4° C. for 15 min, and supernatants were collected. To prepare subcellular fraction of nuclear soluble and chromatin-bound fraction, cells were treated with indicated drugs, and then cells were collected. For fractionation, a Subcellular Protein Fractionation kit (Thermo Fisher Scientific) was used following the manufacturer's instructions. The protein content of the cell was determined, and the cellular lysates were separated by 10% SDS-PAGE, and electro-transferred onto polyvinylidene difluoride (PVDF) membranes. After being blocked with 5% non-fat milk in TBST, the membranes were incubated with primary antibodies at 4° C. overnight, followed by 1:2000 horseradish peroxidase (HRP)-conjugated secondary antibody (Abcam) for 1 hr. Bands were visualized using a Pierce™ ECL Western Blotting Substrate (Thermo Fisher Scientific). Primary antibodies used are listed in Key Resources Table.

cancer cell lines = test: Viability measurement (PrestoBlue, 96 hr) with CalcuSyn combination index; assay type: cell-based, Human; parameters: synergy with JQ1 at fixed PARPi concentration: dose or concentration left out as unconfirmed; details: for synergy with JQ1 at fixed PARPi concentration: 96 hr, HOC1 cells; for synergistic effects in combinations with BRD4i (JQ1): similar combination indices indicative of synergy
Procedure: (§1) Viability Measurements: Five thousand cells were seeded into sterile 96-well plates and treated with indicated drug combinations for 96 hr. DMSO was used as a vehicle. PrestoBlue® Cell Viability Reagent (Thermo Fisher Scientific) was used to assess cell viability. Background values from empty wells were subtracted and data normalized to vehicle-treated control. Synergistic effects between both compounds were calculated using the Chou-Talalay equation in CalcuSyn software, which takes into account both potency (IC50) and shape of the dose-effect curve. […], and CI>1 indicates antagonism.

[4] = test system: OVCAR8 and WU-BC3 PDX tumors; test: IHC of OVCAR8 and WU-BC3 PDX tumors at study termination; parameters: species or system mice; details: mouse, in vivo
Procedure: Immunohistochemical Staining (IHC) Tissues were fixed in 10% formalin overnight and embedded in paraffin. […] paraffin embedded sections were first deparaffinized in xylene. IHC were carried out with EnVision Detection Systems HRP. Rabbit/Mouse (DAB+) kit (Agilent) following manufacturer's instructions. Endogenous peroxidase was blocked by incubation with 0.3% hydrogen peroxide for 15 min. Antigen retrieval was performed by boiling the slides in citrate buffer (10 mM, pH 6.0) in a water bath for […]. Slides were rinsed in PBS Tween 0.05% and blocked for […] with 5% bovine serum albumin (BSA). Slide were incubated overnight at 4° C. with primary antibodies (anti-BRD4,
#13440S, 1:200; anti-CtIP, #9201S, 1:200 from Cell Signaling Technology; anti-RAD51, PC130, 1:100; anti-g-H2AX (Ser139), clone JBW301, 1:500 from Millipore Corp; and anti-pRPA32(S4/8), A300-245A, 1:1000 from Bethyl Laboratories), followed by 1 hr with Labelled Polymer-HRP at room temperature. Negative controls were treated identically, but without primary antibody. Subsequently, slides were incubated with DAB+ Chromogen. Slides were counterstained with hematoxylin. After mounting, slides were observed under microscope and photographed.
OVCAR8 Xenografts: 3×10^6 OVCAR8 cells were injected s.c. into mouse flanks in a 1:1 mix of PBS and Matrigel. […] Tumor volumes were calculated using […]. […]

[5] = test system: CtIP promoter and enhancer; test: ChIP-qPCR at CtIP promoter and enhancer; assay type: cell-based, Human; details: HOC1; 200 nM, 24 hr
Procedure: Chromatin Immunoprecipitation (ChIP-qPCR): ChIP assays were performed with EZ-Magna ChIP™ A/G Chromatin Immunoprecipitation Kit (Millipore Corp) as described in manufacturer's instructions. Briefly, cells were crosslinked with 1% formaldehyde. After cell lysis, isolated nuclei were subjected to sonication for chromatin fragmentation. Sheared chromatin was diluted in diluted buffer, and divided into aliquots for immunoprecipitation. Anti-BRD4 antibody (1:50, #13440S, Cell Signaling), anti-H3K27ac antibody (1:100, ab4729, Abcam), anti-H3K4M1 antibody (1:200, ab8895, Abcam), anti-Pol II antibody (1:100, sc-47701, Santa Cruz) or normal Rabbit IgG control (1:200, #2729, Cell Signaling) were added to chromatin samples, followed by overnight incubation at 4° C., with rotation. Antibody-chromatin complexes were captured using magnetic protein A/G beads. Purified DNAs were subjected to quantitative PCR (qPCR). All primers are list in Table 2.

PARP = details: cited from earlier work
DT40 cells = test: Viability dose response in DT40 WT and PARP1-/- cells; assay type: cell-based, Chicken
Procedure: as §1

[6] = Toxicity analysis in the T127 model (blood counts, serum chemistry); assay type: in vivo, mice; details: compared with the vehicle group
Description: Mice were sacrificed when tumor diameter reached maximum limits of 2.5 cmat Day 22 for tissue harvest and blood collection 3 hr after the final treatment.

OVCAR3 xenografts = test: OVCAR3 xenograft; assay type: in vivo, mice; details: Olaparib 100 mg/kg, AZD5153 2.5 mg/kg, oral gavage, daily, 35 days
Procedure: 6 weeks old female C.B-17 scid mice were purchased from Charles River Laboratories and used for OVCAR3 xenografts. Tumor cells were injected into female mice of approximately 8-10 weeks of age. All mice were housed under pathogen-free conditions at AstraZeneca AAALAC accredited facility. All animal experiments were conducted in compliance with the National Institute of Health guidelines for animal research and approved by the Institutional Animal Care and Use Committee of AstraZeneca.
OVCAR3 Xenograft: […] OVCAR3 cells were injected subcutaneously in the right flank of mice. Mice were randomized based on tumor volumes using stratified sampling and enrolled into control and treatment groups. Dosing began when mean tumor size reached approximately 200 mm^3 and continued for 35 days.

In the case of Cc1sc2c(c1C)C(c1ccc(Cl)cc1)=N[C@@H](CC(=O)OC(C)(C)C)c1nnc(C)n1-2 [JQ1], the “HR repair (percentage of GFP+ cells)” value (U2OS DR-GFP cells) is reported as “attenuated HR repair”, the RAD51 nuclear foci (HOC1 cells [1]) is reported as “decreased RAD51 nuclear foci” and the RPA focus formation (HOC1 cells [1]; in response to PARPi or IR) is reported as “severely impaired”. For the same molecule, the “DNA damage (comet assay)” value (HOC1 cells [2]) was “modestly induced DNA damage”, the “formation of ssDNA” value (HOC1 cells [3]) was “significantly reduced” and the HRD score (HRD gene signature) was “increased HRD score”. For the same molecule, the “expression of other MRN complex proteins” value (CtIP; 200 nM, 48 hr, HeyA8, OVCAR8, HOC7 cells) was “did not markedly alter”, the “CtIP and pRPA32 (S4/8) protein” value (CtIP; HOC1 and HeyA8 cells, dose and time course) was “decreased CtIP and phosphorylated RPA32” and the RAD51 levels (CtIP; HeyA8 and HOC7, 200 nM, 48 hr) was “modestly decreased”. For the same molecule, the BRCA1 levels (CtIP; MCAS, 200 nM, 48 hr) was “modestly decreased”, the CtIP protein (CtIP; all lines assessed, 200 nM, 48 hr) was “consistently decreased” and the “resensitization of PARPi-resistant cells to PARPi” value (cancer cell lines; A2780CP_R, OAW42_R and OC316_R) was “resensitized”. The “PARPi resistance mediated by 53BP1 knockdown” value (cancer cell lines; BRCA1 knockdown MCF10A, BRCA1 mutant UWB1.289 and COV362 cells) was “reversed resistance”, the “CtIP and pRPA32 (S4/8) (IHC)” value [4] was “decreased” and the “gH2AX (IHC)” value [4] was “increased”. For the same molecule, the “BRD4 association with the CtIP promoter and enhancer” value [5] was “decreased”, the “H3K27Ac, H3K4Me1 at the CtIP promoter and enhancer” value [5] was “reduced” and the “association of RNA Pol-II with the CtIP promoter and enhancer” value [5] was “decreased association”.

For Cn1ncnc1[C@H]1c2n[nH]c(=O)c3cc(F)cc(c23)N[C@@H]1c1ccc(F)cc1 [BMN673], the “DNA damage (comet assay)” value (HOC1 cells [2]) is listed as “modestly induced DNA damage”, the PARP trapping activity (PARP) is listed as “most active” and the “sensitivity of PARP1-/- DT40” value (DT40 cells) is listed as “resistant”. For the same molecule, the “synergy with JQ1 at fixed PARPi concentration” value (“synergy with JQ1” below) (cancer cell lines) was “synergized with JQ1” and the “sensitivity of cell lines to PARPi alone” value (cancer cell lines; OAW42, A2780CP, A2780, UWB1.289, OC316, ARK1, HCC1187, BT20, MDA-MB-436) was “highly sensitive”.

With COc1nnc2ccc(N3CCC(c4ccc(OCCN5CCN(C)C(=O)[C@H]5C)cc4)CC3)nn12 [AZD5153] the “HR repair (percentage of GFP+ cells)” value (U2OS DR-GFP cells) was “attenuated HR repair”, the RAD51 nuclear foci (HOC1 cells [1]) was “decreased RAD51 nuclear foci” and the “numbers of white blood cells” value [6] was “slight decrease but remained in the normal range”. For the same molecule, the HRD score (HRD gene signature) was “increased HRD score” and the “tumor growth inhibitions (TGI)” value (OVCAR3 xenografts) was 83%.

For C[C@]1(c2nc3c(C(N)=O)cccc3[nH]2)CCCN1 [ABT888], the PARP trapping activity (PARP) is listed as “weakest”, the “concentration required for PARP trapping” value (PARP) is listed as 50 mM and the “synergy with JQ1” value (cancer cell lines) is listed as “synergized with JQ1”. The “synergistic effects in combinations with BRD4i (JQ1)” value (cancer cell lines) was “synergistic effects were maintained”.

For NC(=O)c1cccc2cn(-c3ccc([C@@H]4CCCNC4)cc3)nc12 [Niraparib], the PARP trapping activity (PARP) is given as “intermediate in activity”.

For CNCc1ccc(-c2[nH]c3cc(F)cc4c3c2CCNC4=O)cc1 [Rucaparib], the PARP trapping activity (PARP) is listed as “intermediate in activity”.

With O=C(c1cc(Cc2n[nH]c(=O)c3ccccc23)ccc1F)N1CCN(C(=O)C2CC2)CC1 [Olaparib] the “tumor growth inhibitions (TGI)” value (OVCAR3 xenografts) was 35%, the “synergy with JQ1” value (cancer cell lines) was “synergized with JQ1” and the “synergistic effects in combinations with BRD4i (JQ1)” value (cancer cell lines) was “synergistic effects were maintained”.
